Measured values: patent publication US8715658B2, “Methods for treating conditions mediated by the inflammatory cytokine cascade using GAPDH inhibitors” (The Feinstein Institute for Medical Research, priority 2009, dated 2014)

Tests used:
human whole blood = assay: Human whole blood assay, plasma TNF by ELISA; format: cell-based
Method: Human whole blood was obtained from anonymous donors from the Long Island Blood Services. The blood was aliquotted into 48-well plates at 250 μl/well. Aliquots were then treated as indicated at 37° C. for four hours. Samples were centrifuged to separate plasma at 5000 rpm for five minutes at room temperature. TNF levels in the plasma were determined by ELISA as described above.
IgG from α-GAPDH #4418 antiserum was purified using protein A/G sepharose (Pierce). Purified IgG was used to test for the ability of α-GAPDH #4418 to neutralize GAPDH activity. Six conditions were tested: GAPDH (10 μg/ml) alone, GAPDH plus non-specific rabbit IgG (100 ug/ml), GAPDH plus α-GAPDH #4418 (100 ug/ml), α-GAPDH #4418 alone, non-specific rabbit IgG alone. The GAPDH plus α-GAPDH #4418 treatment was pre-incubated at room temperature for 30 minutes prior to applying the mixture to the whole blood.

cultured macrophages = assay: GST-GAPDH on cultured macrophages, inflammatory responses; format: cell-based; details: FIG. 7
mice = assay: GST-GAPDH challenge in mice, clinical sickness scoring; format: in vivo; details: FIG. 9
RAW264.7 cells = RAW264.7 cells challenged with GAPDH for cytokine (TNF) elicitation, ELISA; format: cell-based, murine; details: 50 μg/ml GAPDH, 4 hours, FIG. 2
Method: Murine macrophage-like RAW264.7 cells were obtained from the American Type Tissue collection (ATTC). The RAW264.7 cells were cultured in Dulbecco's Modified Essential Medium (DMEM) (Gibco) supplemented with 1% heat-inactivated fetal bovine serum (FBS) (BioWhittaker), and 2 mM L-glutamine, and 100 μg/ml penicillin and streptomycin (all from Sigma). Raw264.7 cultures were incubated at 37° C. under 5% CO2. The cells were serum-deprived in 1% FBS medium for the purpose of slowing the cell cycle to synchronize the cell population. Serum deprivation of the cells also limits available growth factors, minimizing the level of intracellular signaling in pathways that lead to the activation of mitogen-activated protein (MAP) kinases. It is interesting to note that immune challenges such as bacterial endotoxin (LPS) also activate MAP kinases to generate inflammatory responses, and thus high levels of FBS would interfere with the detection of MAP kinase signals that are elicited by the specific immune challenges that this study investigates. RAW264.7 cells were used at approximately 70% confluence, and all treatments were carried out in serum-free Opti-MEM I medium.
RAW264.7 cells at approximately 70% confluence were kept in serum-free Opti-MEM I for 20 minutes prior to treatments. […]

JNK = assay: RAW264.7 cells challenged with GAPDH or LPS, JNK activation by Western blot; format: cell-based, murine; details: 50 μg/ml GAPDH or 20 ng/ml LPS
Method: (§1) RAW264.7 cells at approximately 70% confluence were kept in serum-free Opti-MEM I for 20 minutes prior to treatments. Cells were challenged with either GAPDH or LPS in a time-course with […] time points (180 min, 120 min, 60 min, 30 min, 15 min, and 0 min). The GAPDH treatment consisted of purified GAPDH diluted to 50 μg/ml in Opti-MEM I. The LPS treatment consisted of LPS (sonicated approximately 30 minutes before use) diluted to 20 ng/ml into Opti-MEM I. Treatments used for time-course experiments were incubated in a 37° C. water bath to maintain culture temperature between time points and sonicated for five minutes before use. […] Bound IκBα antibody was detected using a 1:2000 dilution of HRP-conjugated anti-mouse IgG in 2.5% milk; bound JNK antibody was detected using a 1:2000 dilution of HRP-conjugated anti-rabbit IgG in 2.5% milk. […]
(§2) RAW264.7 macrophage-like cells were challenged with either 50 μg/ml GAPDH or 20 ng/ml LPS in a time-course consisting of six time points ranging from 180 min to 0 min. […] Protein assays were conducted on cell lysates in order to standardize the quantity of protein loaded into each well of SDSPAGE gels for separation. […]

IκBα = assay: RAW264.7 cells challenged with GAPDH or LPS, IκBα degradation (NF-κB pathway) by Western blot; format: cell-based, murine; details: 50 μg/ml GAPDH or 20 ng/ml LPS, time-course 0-180 min, FIG. 4
Method: as §1, §2

Peritoneal macrophages = assay: TNF response of peritoneal macrophages from wildtype, TLR2, TLR4 or RAGE deficient mice to GAPDH; format: cell-based; details: FIG. 3; for TNF release: 50 μg/ml GAPDH
Method: Peritoneal macrophages harvested from Wildtype, Toll-like receptor (TLR) 2, TLR4, or Receptor for Advanced Glycation Endproducts (RAGE) deficient mice were resuspended in RPMI1640 medium (Gibco) supplemented with 10% FBS and 2 mM L-glutamine, and 100 μg/ml penicillin and streptomycin, and plated at 1×10^6 cells/well into 24-well Primaria tissue culture plates (Falcon). Cultures were maintained for 24 h at 37° C. under 5% CO2. 30 minutes prior to experimentation, culture medium was replaced by serum free Opti-MEM I medium, and all treatments were conducted in serum free Opti-MEM I medium as described.
RAW264.7 cells at approximately 70% confluence were kept in serum-free Opti-MEM I for 20 minutes prior to treatments. Cells were challenged with a concentration range of purified recombinant GAPDH (produced on site) to determine concentration-dependent responsiveness of inflammatory mediator production. The concentration range consisted of seven concentrations of GAPDH in a five-fold dilution series (50 μg/ml, 10 μg/ml, 2 μg/ml, 0.4 μg/ml, 0.08 μg/ml, 0.016 μg/ml, 0 μg/ml). Cells were incubated at 37° C. and 5% CO2 for 4 hours (TNF). After treatment, the media was harvested and transferred to tubes, and M-cell lysis reagent was applied to the cells. […] The media samples were applied to Enzyme-Linked ImmunoSorbent Assays (ELISA) directed against mouse-TNF (all ELISA reagents were obtained from R+D systems). These ELISA plates were set up and run according to the manufacturer's recommendations. Briefly, samples were incubated overnight in the ELISA plate on a rocker at 4° C. Plates were washed 3× with phosphate-buffered saline supplemented with 0.05% TWEEN-20, and detection antibody diluted at 1:2000 in 1% bovine serum albumin (BSA) was applied to the plates for 2 hours. The plates were washed again as above, and strepavidin-HRP diluted at 1:2000 in 1% BSA was applied to the plates for 15 minutes. The plates were washed again as above, then developed by applying substrate reagent to each well. Reactions were stopped by adding 2M H2SO4 when the standard curve had become obvious, typically 8 to 10 minutes.

| Substance | inflammatory cytokine response from human blood (human whole blood; FIG. 8) | interaction of inflammatory response with LPS (human whole blood; human blood, FIG. 8) | inflammatory responses from cultured macrophages (cultured macrophages) | sickness by clinical scoring parameters (piloerection, closed eyes, diarrhea, tremoring, activity, relative temperature) (mice) | TNF release (RAW264.7 cells) | plasma TNF levels (human whole blood; 10 μg/ml challenge, four hours, human whole blood, FIG. 5) | increase in activated JNK levels (JNK; 30 minutes after challenge) | increase in activated JNK levels (JNK; 60 minutes after challenge) | basal level of IκBα (degradation) (IκBα) | TNF release (Peritoneal macrophages; RAGE deficient macrophages) | TNF release (Peritoneal macrophages; TLR2 deficient macrophages) | TNF response (Peritoneal macrophages; TLR4 deficient macrophages) | TNF release (Peritoneal macrophages; wild type macrophages) |
| --- | --- | --- | --- | --- | --- | --- | --- | --- | --- | --- | --- | --- | --- |
| GST-GAPDH: purified recombinant GST-GAPDH, a stable tetramer | elicit inflammatory cytokine response | synergistic with LPS | elicits inflammatory responses | cause sickness | – | – | – | – | – | – | – | – | – |
| GAPDH: purified recombinant human GAPDH (produced on site), tested as candidate inflammatory cytokine | – | – | – | – | approximately 2250 pg/mg of cellular protein | approximately 450 pg/ml | approximately eight-fold | approximately fifteen-fold | decreased dramatically and was nearly undetectable by 30 minutes post treatment | approximately 4500 pg TNF/mg cell protein | ~5000 pg TNF/mg cell protein | did not mount a significant response | approximately 6000 pg TNF/mg cellular protein |
